Here are results for ten molecules from PubChem BioAssay (NCI).

Test systems include UO-31 renal; EKVX NSCLC; UACC-62 melanoma; TK-10 renal; KM12 colon; RPMI-8226 leukemia; NCI-H460 lung; NCI-H522 lung; ACHN renal; SF-539 CNS; MALME-3M melanoma; OVCAR-5 ovarian; MDA-MB-231 breast; T-47D breast; DU-145 prostate; MCF7 breast; PC-3 prostate; MDA-N.
Common to all, as to test: growth of human tumour cells (NCI), 48 h

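Protocol summary: plate cells (96-well), add compound at 5 concentrations, incubate 48 h, interpolate endpoints linearly. TGI denotes the concentration required for complete inhibition of growth.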 Where only a bound is given, the exact number is not on record here.

`CC(=O)OC1CC2(C)OC(Cc3ccccc32)O1` (centres undefined): the TGI in the assay on UO-31 renal, in the assay on EKVX NSCLC, with UACC-62 melanoma, in the assay with TK-10 renal, in the assay with KM12 colon and in the assay with RPMI-8226 leukemia was more than 100 µM each time. Also, the TGI in the assay with NCI-H460 lung, with NCI-H522 lung, in the assay on ACHN renal, in the assay on SF-539 CNS and in the assay with MALME-3M melanoma was more than 100 µM each time.

For `CCC12CCCNC1c1c(n(C)c3ccccc13)C(C(=O)OC)C2` (centres undefined), the TGI in the assay on EKVX NSCLC is more than 275 µM; with UACC-62 melanoma it was more than 275 µM; in the assay on TK-10 renal, more than 275 µM; with KM12 colon, 161 µM; in the assay with OVCAR-5 ovarian it was 208 µM; with RPMI-8226 leukemia, 199 µM. Also, the TGI was more than 275 µM in the assay with NCI-H460 lung; 37.6 µM in the assay on NCI-H522 lung; 257 µM in the assay with ACHN renal; more than 275 µM with SF-539 CNS; more than 275 µM in the assay on MALME-3M melanoma.

On to `Cc1cc(C)n2c(-c3ccccc3)c(C)cc2n1`, for which the TGI in the assay with UO-31 renal, in the assay on EKVX NSCLC, with UACC-62 melanoma, in the assay with TK-10 renal, in the assay on KM12 colon and in the assay on OVCAR-5 ovarian was more than 100 µM in each case. Besides, the TGI in the assay on NCI-H460 lung was more than 100 µM; in the assay with NCI-H522 lung, 64.4 µM; in the assay with ACHN renal, more than 100 µM; with SF-539 CNS, 73.4 µM; in the assay on MALME-3M melanoma it was more than 100 µM.

As to `Cc1cc(C)nc(SCC(=O)OC2CC(C)CCC2C(C)C)n1` (centres undefined), the TGI turned out to be 33.7 µM in the assay on UO-31 renal; 39.3 µM in the assay on EKVX NSCLC; 33.9 µM in the assay on UACC-62 melanoma; 89.9 µM in the assay with TK-10 renal; 42.7 µM in the assay on KM12 colon; 49.7 µM in the assay on MDA-MB-231 breast. For the same molecule, the TGI in the assay with OVCAR-5 ovarian amounted to 47.9 µM; in the assay with T-47D breast, 54.2 µM; in the assay on RPMI-8226 leukemia it was 41.3 µM; in the assay with NCI-H460 lung, 35.8 µM; in the assay with NCI-H522 lung it was 46 µM; with ACHN renal, 38.6 µM. The TGI with MALME-3M melanoma is 41.1 µM; with DU-145 prostate it was more than 100 µM; in the assay with MCF7 breast it was 50.7 µM; with PC-3 prostate, 69.5 µM.

As for `COc1cccc(CCNc2c(C#N)c3nc4ccccc4n3c3ccccc23)c1`, the TGI is more than 100 µM in the assay with UO-31 renal; more than 100 µM in the assay with EKVX NSCLC; more than 100 µM in the assay on UACC-62 melanoma; more than 100 µM in the assay with TK-10 renal; more than 44.5 µM in the assay on KM12 colon; more than 100 µM in the assay on MDA-MB-231 breast. Further, the TGI is more than 100 µM in the assay on OVCAR-5 ovarian; more than 52.6 µM with T-47D breast; more than 100 µM in the assay with RPMI-8226 leukemia; more than 100 µM with NCI-H460 lung; 0.397 µM with NCI-H522 lung; more than 100 µM in the assay with ACHN renal. The TGI was more than 100 µM with SF-539 CNS; more than 100 µM in the assay with MALME-3M melanoma; more than 41.1 µM in the assay on DU-145 prostate; more than 100 µM in the assay on MCF7 breast; more than 100 µM with PC-3 prostate.

With `CC(C)(C)CNC(=O)NCn1cc(-c2ccccc2)nn1`, the TGI in the assay with EKVX NSCLC, in the assay with TK-10 renal, in the assay on KM12 colon, in the assay with MDA-MB-231 breast, in the assay on OVCAR-5 ovarian and in the assay on RPMI-8226 leukemia was more than 100 µM throughout. Further, the TGI with NCI-H460 lung, with NCI-H522 lung, in the assay with ACHN renal, in the assay with SF-539 CNS, in the assay with MALME-3M melanoma and with DU-145 prostate was more than 100 µM each time. The TGI in the assay with MCF7 breast and in the assay on PC-3 prostate was more than 100 µM in each case.

In the case of `CSc1cc(Br)ccc1-n1c(C(=O)c2ccccc2)c(SC)n(-c2ccccc2)c1=O`, the TGI in the assay with UO-31 renal, in the assay with EKVX NSCLC, in the assay on UACC-62 melanoma, with TK-10 renal, in the assay with KM12 colon and with MDA-MB-231 breast was more than 100 µM throughout. Further, the TGI with OVCAR-5 ovarian, in the assay with NCI-H460 lung, in the assay on MDA-N, with NCI-H522 lung, in the assay with ACHN renal and in the assay on SF-539 CNS was more than 100 µM in each case. The TGI in the assay on MCF7 breast and in the assay on PC-3 prostate was more than 100 µM in each case.

Consider `CN(C)c1ccc(-c2c(C#N)c(O)n(NS(=O)(=O)c3ccccc3)c(=O)c2C#N)cc1`, for which the TGI in the assay on EKVX NSCLC, in the assay with UACC-62 melanoma, in the assay with TK-10 renal, in the assay on KM12 colon, in the assay with MDA-MB-231 breast and with OVCAR-5 ovarian was more than 100 µM in each case. Besides, the TGI in the assay on RPMI-8226 leukemia, in the assay with NCI-H460 lung, in the assay on MDA-N, with NCI-H522 lung, in the assay with ACHN renal and with SF-539 CNS was more than 100 µM in each case. For the same molecule, the TGI in the assay with MALME-3M melanoma, in the assay on MCF7 breast and with PC-3 prostate was more than 100 µM in each case.

In the case of `O=C(O)CCNC(=O)c1cc(N(CCBr)CCBr)c([N+](=O)[O-])cc1[N+](=O)[O-]`, the TGI with UO-31 renal, with EKVX NSCLC, with TK-10 renal, with KM12 colon, in the assay with MDA-MB-231 breast and in the assay on OVCAR-5 ovarian was more than 100 µM throughout. Moreover, the TGI in the assay on RPMI-8226 leukemia, in the assay on NCI-H460 lung, in the assay with MDA-N, in the assay on NCI-H522 lung, with ACHN renal and with MALME-3M melanoma was more than 100 µM in each case. For the same molecule, the TGI in the assay with MCF7 breast and with PC-3 prostate was more than 100 µM in each case.

On to `C[C@H](NC(=O)n1c2ccccc2c2ccccc21)C(=O)O`, for which the TGI in the assay with EKVX NSCLC, in the assay with UACC-62 melanoma, in the assay on TK-10 renal, in the assay on KM12 colon, with OVCAR-5 ovarian and with RPMI-8226 leukemia was more than 100 µM each time. In addition, the TGI with NCI-H460 lung, with NCI-H522 lung, in the assay with ACHN renal, with SF-539 CNS and in the assay on MALME-3M melanoma was more than 100 µM each time.
